Laboratory results from ChEMBL document CHEMBL1201862, “PubChem BioAssay data set” (2004).
Active and inactive are the calls of the source.

How the values were obtained:
[1] = intracellular Trypanosoma cruzi inhibitors in host cells – cell-based, plate reader, cherry-pick samples, set 3, dose response (AID 651818); type: functional;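 note: compounds incubated with infected cells for about four days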
[2] = molecular target: T1, Calpain-2 catalytic subunit (Sus scrofa, UniProt P43367); experiment: m-calpain protease blockers, concentration series – biochemical, fluorogenic peptide substrate, dose response (AID 1420); type: functional
T1 sequence (P43367 whole entry): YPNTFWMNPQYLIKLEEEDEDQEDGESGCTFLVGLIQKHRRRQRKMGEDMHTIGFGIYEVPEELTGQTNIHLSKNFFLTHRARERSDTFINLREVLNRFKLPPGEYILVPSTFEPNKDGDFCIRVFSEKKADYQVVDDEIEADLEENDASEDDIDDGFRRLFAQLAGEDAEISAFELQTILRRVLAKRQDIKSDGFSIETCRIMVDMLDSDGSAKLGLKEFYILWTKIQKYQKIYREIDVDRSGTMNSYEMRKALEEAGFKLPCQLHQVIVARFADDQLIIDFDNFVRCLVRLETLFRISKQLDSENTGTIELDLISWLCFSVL

[3] = molecular target: Induced myeloid leukemia cell differentiation protein Mcl-1 (Homo sapiens, UniProt Q07820); type: functional
Chain of Induced myeloid leukemia cell differentiation protein Mcl-1 (Q07820 whole entry): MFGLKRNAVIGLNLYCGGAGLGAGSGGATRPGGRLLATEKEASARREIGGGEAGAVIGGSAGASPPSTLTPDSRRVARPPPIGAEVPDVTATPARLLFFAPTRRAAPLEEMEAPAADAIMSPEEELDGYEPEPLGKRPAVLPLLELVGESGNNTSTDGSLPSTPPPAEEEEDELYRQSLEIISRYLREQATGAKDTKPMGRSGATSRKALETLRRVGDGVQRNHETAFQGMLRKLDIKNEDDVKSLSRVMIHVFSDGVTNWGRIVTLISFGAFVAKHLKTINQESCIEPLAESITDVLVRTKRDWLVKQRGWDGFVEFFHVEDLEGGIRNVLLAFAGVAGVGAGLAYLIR

cells [4] = type: functional, cell-based
cells [5] = type: functional, cell-based; remark: listed apart in the source
Vero = experiment: cells; type: functional, cell-based; settings: Chlorocebus sabaeus
[6] = test system: Streptococcus sp. 'group A'; experiment: Streptococcus pyogenes SK(-)GAS viability under kanamycin – luminescence, BacTiterGlo, confirmation, counter-screen for streptokinase expression inhibitor project, dose response (AID 1900); type: functional, organism-based
Streptokinase A = molecular target: T2, Streptokinase A (Streptococcus pyogenes serotype M1, UniProt P10520); experiment: viability-normalized secreted streptokinase activity reduction – plasminogen activation absorbance, OD405, dose response (AID 1914); type: functional, Streptococcus pyogenes M1 GAS;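 note: secreted streptokinase activity via plasminogen activation per viability signal from cell pellet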
T2 sequence (P10520 whole entry): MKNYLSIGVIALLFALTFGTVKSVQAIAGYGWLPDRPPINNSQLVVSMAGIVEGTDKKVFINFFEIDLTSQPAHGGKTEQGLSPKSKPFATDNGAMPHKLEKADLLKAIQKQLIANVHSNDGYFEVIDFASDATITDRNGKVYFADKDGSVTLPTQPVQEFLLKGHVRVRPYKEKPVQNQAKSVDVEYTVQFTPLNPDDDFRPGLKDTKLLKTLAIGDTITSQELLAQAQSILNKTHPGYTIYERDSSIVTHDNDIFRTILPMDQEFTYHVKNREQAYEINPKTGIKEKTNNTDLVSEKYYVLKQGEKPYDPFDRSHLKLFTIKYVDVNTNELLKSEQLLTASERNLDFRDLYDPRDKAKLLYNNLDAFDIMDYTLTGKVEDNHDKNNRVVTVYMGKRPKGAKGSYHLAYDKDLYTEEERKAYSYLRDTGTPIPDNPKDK

Streptococcus = experiment: GAS UMAA2166 growth inhibition – luminescence, BacTiterGlo, counter-screen for streptokinase expression inhibitor project, dose response (AID 1915); type: functional, organism-based;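 note: potency for reduction of bacterial viability or growth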
[7] = molecular target: Disintegrin and metalloproteinase domain-containing protein 17 (Homo sapiens, UniProt P78536); experiment: inhibition of ADAM17 substrate cleavage – biochemical, quenched FRET substrate, counter-screen for ADAM10 exosite inhibitor project, dose response (AID 743253)
Chain of Disintegrin and metalloproteinase domain-containing protein 17 (P78536 whole entry, the tested form may be a part): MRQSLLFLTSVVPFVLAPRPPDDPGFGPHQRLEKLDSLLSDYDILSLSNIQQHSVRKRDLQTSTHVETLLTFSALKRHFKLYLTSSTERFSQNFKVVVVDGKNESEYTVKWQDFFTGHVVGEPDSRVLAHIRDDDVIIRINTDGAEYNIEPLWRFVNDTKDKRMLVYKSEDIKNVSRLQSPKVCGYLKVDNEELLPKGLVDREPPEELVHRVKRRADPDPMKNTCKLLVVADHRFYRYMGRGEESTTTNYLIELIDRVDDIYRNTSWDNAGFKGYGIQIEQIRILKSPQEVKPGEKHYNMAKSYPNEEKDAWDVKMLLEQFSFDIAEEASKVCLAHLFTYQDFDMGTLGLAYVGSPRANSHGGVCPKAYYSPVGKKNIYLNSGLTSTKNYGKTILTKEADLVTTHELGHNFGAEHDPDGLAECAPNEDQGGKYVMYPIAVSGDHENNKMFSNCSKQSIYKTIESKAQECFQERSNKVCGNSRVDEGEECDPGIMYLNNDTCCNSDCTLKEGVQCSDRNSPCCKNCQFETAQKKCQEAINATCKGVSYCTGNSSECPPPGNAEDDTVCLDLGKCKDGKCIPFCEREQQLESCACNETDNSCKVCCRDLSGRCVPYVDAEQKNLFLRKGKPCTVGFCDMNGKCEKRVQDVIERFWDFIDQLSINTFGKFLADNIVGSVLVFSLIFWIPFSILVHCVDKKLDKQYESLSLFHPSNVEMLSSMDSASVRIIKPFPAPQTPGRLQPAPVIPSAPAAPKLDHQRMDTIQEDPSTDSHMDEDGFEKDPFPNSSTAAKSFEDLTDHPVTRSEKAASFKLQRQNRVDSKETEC

[8] = Luminescence Cell-Based Dose Retest to Confirm Inhibitors of Cancer Stem Cells. [Related pubchem assays (depositor defined):AID2717, AID2721]; type: functional; settings: Homo sapiens
[9] = blockers of HIV-1 envelope-mediated cell-cell fusion – cherry-pick, dose response (AID 652057); type: functional, cell-based
[10] = blockers of HIV-1 ZM109 envelope-driven cell-cell fusion – HeLa effector, CEM target cells, luciferase, cherry-pick, dose response (AID 652058); type: functional, cell-based;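 note: luciferase signal from HIV-1 Env mediated cell-cell fusion of effector and target cells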
[11] = off-target signal loss in HeLa-CEM21 co-culture – HeLa F-luc CTL cells, cherry-picked, counter-screen for HIV-1 Env fusion inhibitor project, dose response (AID 652040); type: functional, cell-based;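 note: potency for signal decrease marking cytotoxic or nonspecific inhibition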
[12] = HIV-1 AD8 envelope cell-cell fusion blockers – cherry-pick, dose response (AID 652062); type: functional, cell-based;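 note: luciferase signal from cell-cell fusion driven by HIV-1 clade B AD8 Env; potency is for inhibitors of fusion seen as a drop in luminescence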

**Q.** For C[C@H](CO)N1C[C@H](C)[C@@H](CN(C)Cc2ccc(Oc3ccccc3)cc2)Oc2c(NS(=O)(=O)c3ccc(Cl)cc3)cccc2C1=O, which AC50 [1] is on record?
**A.** Its AC50 is 3.36 µM (active).

**Q.** For Cc1ccc2c(c1)nnn2C1CCN(S(=O)(=O)c2ccc(C(=O)N3CC(C)CC(C)C3)cc2)CC1 (stereo not drawn), which IC50 [2] is on record?
**A.** The IC50 was 3.74 µM (not active).

**Q.** Which IC50 [3] does the source give for Oc1c(Br)cc(/C=N/c2ccc3[nH]c(-c4ccccc4)nc3c2)c(O)c1Br here?
**A.** Its IC50 is 1.49 µM (active).

**Q.** For O=C(c1ccc(-c2nnc(-c3ccccc3)o2)cc1)N1CCCCCC1, which EC50 (cells [4]) is on record?
**A.** The EC50 was > 350 µM (not active).

**Q.** And the EC50 (cells [5])?
**A.** The EC50 was 5.78 µM (active).

**Q.** And the IC50 [2]?
**A.** Its IC50 is 11 µM (not active).

**Q.** For C[C@@H]1CN([C@@H](C)CO)C(=O)c2cccc(NC(=O)c3nc4ccccc4s3)c2O[C@@H]1CN(C)Cc1ccc(C(=O)Nc2ccccc2N)cc1, which AC50 [1] is on record?
**A.** Its AC50 is 2.88 µM (active).

**Q.** For COCCN=C(S)NCc1ccc2[nH]c3c(c2c1)CCCC3, which IC50 (Vero) is on record?
**A.** The IC50 was 23.6 µM (active).

**Q.** With C[C@@H]1CN([C@H](C)CO)C(=O)Cc2cc(NC(=O)Nc3cccc4ccccc34)ccc2O[C@H]1CN(C)Cc1ccc(C(F)(F)F)cc1 as the molecule, how does the AC50 [1] read?
**A.** Its AC50 is 3.46 µM (active).

**Q.** With O=C(OCc1csc(Nc2ccccc2)n1)c1ccc(Cl)cc1 as the molecule, how does the EC50 [6] read?
**A.** The EC50 was 12.8 µM (active).

**Q.** What about the EC50 (Streptokinase A) of the same molecule?
**A.** Its EC50 is 34.2 µM (active).

**Q.** And the EC50 (Streptococcus)?
**A.** Its EC50 is > 150 µM (not active).

**Q.** And the IC50 [7]?
**A.** Its IC50 is > 69.5 µM (inactive).

**Q.** For Cc1ccc(S(=O)(=O)Nc2ccc3c(c2)CC(=O)N([C@@H](C)CO)C[C@H](C)[C@@H](CN(C)Cc2ccc(C(=O)Nc4ccccc4N)cc2)O3)cc1, which AC50 [1] is on record?
**A.** Its AC50 is 2.74 µM (active).

**Q.** With Cc1ccc(NC2=NCC(Cc3ccc(Br)cc3)S2)cc1 (stereo not drawn) as the molecule, how does the EC50 [6] read?
**A.** The EC50 was 6.42 µM (active).

**Q.** What about the EC50 (Streptokinase A) of the same molecule?
**A.** Its EC50 is > 150 µM (not active).

**Q.** And the IC50 [2]?
**A.** Its IC50 is 5.89 µM (not active).

**Q.** And the EC50 (Streptococcus)?
**A.** Its EC50 is 10.4 µM (active).

**Q.** What about the AC50 [8] of the same molecule?
**A.** The AC50 was 6.43 µM (active).

**Q.** With Cc1cc(C)n2nc(NCc3cccc(Br)c3)nc2n1 as the molecule, how does the AC50 [9] read?
**A.** The AC50 was 7.45 µM (active).

**Q.** And the AC50 [10]?
**A.** Its AC50 is 7.3 µM (active).

**Q.** What about the AC50 [11] of the same molecule?
**A.** The AC50 was 7.14 µM (active).

**Q.** What about the AC50 [12] of the same molecule?
**A.** Its AC50 is 2.92 µM (active).
